Results reported in patent US11331369B2, “Endoparasitic depsipeptides” (Zoetis Services LLC, priority 2017, dated 2022).

Test system: microfilariae of Dirofilaria immitis
Experiment: Dirofilaria immitis, Microfilaria (DiMF) In vitro Assay
Format: cell-based
Settings: 72 h, read-out: DiMF Minimum Effective Dose (MED), approximately 72 hours incubation, microfilariae assessed for survival or paralysis

SMILES | minimal effective concentration [µM]
CC(C)C[C@H]1C(=O)O[C@H](Cc2ccc(Cn3cc(C(F)F)cn3)cc2)C(=O)N(C)[C@@H](CC(C)C)C(=O)O[C@H](C)C(=O)N(C)[C@@H](CC(C)C)C(=O)O[C@H](Cc2ccc(Cn3cc(C(F)F)cn3)cc2)C(=O)N(C)[C@@H](CC(C)C)C(=O)O[C@H](C)C(=O)N1C [Example 1b-62, (3S,6R,9S,12R,15S,18R,21S,24R)-6,18-bis(4-((4-(difluoromethyl)-1H-pyrazol-1-yl)methyl)benzyl)-3,9,15,21-tetraisobutyl-4,10,12,16,22,24-hexamethyl-1,7,13,19-tetraoxa-4,10,16,22-tetraazacyclotetracosan-2,5,8,11,14,17,20,23-octaone] | 0.001 to 0.01
CCOc1cc(C)nn1Cc1ccc(C[C@H]2OC(=O)[C@H](CC(C)C)N(C)C(=O)[C@@H](C)OC(=O)[C@H](CC(C)C)N(C)C(=O)[C@@H](Cc3ccc(Cn4nc(C)cc4OCC)cc3)OC(=O)[C@H](CC(C)C)N(C)C(=O)[C@@H](C)OC(=O)[C@H](CC(C)C)N(C)C2=O)cc1 [Example 1b-163, (3S,6R,9S,12R,15S,18R,21S,24R)-6,18-bis(4-((5-ethoxy-3-methyl-1H-pyrazol-1-yl)methyl)benzyl)-3,9,15,21-tetraisobutyl-4,10,12,16,22,24-hexamethyl-1,7,13,19-tetraoxa-4,10,16,22-tetraazacyclotetracosan-2,5,8,11,14,17,20,23-octaone] | 0.01 to 0.1
CC(C)C[C@H]1C(=O)O[C@H](Cc2ccc(Cn3cc(C(F)(F)F)cn3)cc2)C(=O)N(C)[C@@H](CC(C)C)C(=O)O[C@H](C)C(=O)N(C)[C@@H](CC(C)C)C(=O)O[C@H](Cc2ccc(Cn3cc(C(F)(F)F)cn3)cc2)C(=O)N(C)[C@@H](CC(C)C)C(=O)O[C@H](C)C(=O)N1C [Example 1b-34, (3S,6R,9S,12R,15S,18R,21S,24R)-3,9,15,21-tetraisobutyl-4,6,10,16,18,22-hexamethyl-12,24-bis(4-((4-(trifluoromethyl)-1H-pyrazol-1-yl)methyl)benzyl)-1,7,13,19-tetraoxa-4,10,16,22-tetraazacyclotetracosan-2,5,8,11,14,17,20,23-octaone] | 0.01 to 0.1
CC(C)C[C@H]1C(=O)O[C@H](Cc2ccc(CN3CCN(C(=O)OC(C)(C)C)CC3)cc2)C(=O)N(C)[C@@H](CC(C)C)C(=O)O[C@H](C)C(=O)N(C)[C@@H](CC(C)C)C(=O)O[C@H](Cc2ccccc2)C(=O)N(C)[C@@H](CC(C)C)C(=O)O[C@H](C)C(=O)N1C [Example 10-9, tert-butyl 4-(4-(((2R,5S,8R,11S,14R,17S,20R,23S)-14-benzyl-5,11,17,23-tetraisobutyl-4,8,10,16,20,22-hexamethyl-3,6,9,12,15,18,21,24-octaoxo-1,7,13,19-tetraoxa-4,10,16,22-tetraazacyclotetracosan-2-yl)methyl)benzyl)piperazine-1-carboxylate] | 0.01 to 0.1
CC(C)C[C@H]1C(=O)O[C@H](Cc2ccc(Cn3ccc(-c4ccncc4)n3)cc2)C(=O)N(C)[C@@H](CC(C)C)C(=O)O[C@H](C)C(=O)N(C)[C@@H](CC(C)C)C(=O)O[C@H](Cc2ccc(Cn3ccc(-c4ccncc4)n3)cc2)C(=O)N(C)[C@@H](CC(C)C)C(=O)O[C@H](C)C(=O)N1C [Example 1b-138, (3S,6R,9S,12R,15S,18R,21S,24R)-3,9,15,21-tetraisobutyl-4,6,10,16,18,22-hexamethyl-12,24-bis(4-((3-(pyridin-4-yl)-1H-pyrazol-1-yl)methyl)benzyl)-1,7,13,19-tetraoxa-4,10,16,22-tetraazacyclotetracosan-2,5,8,11,14,17,20,23-octaone] | 0.01 to 0.1
Cc1nn(Cc2ccc(C[C@H]3OC(=O)[C@H](CC(C)C)N(C)C(=O)[C@@H](C)OC(=O)[C@H](CC(C)C)N(C)C(=O)[C@@H](Cc4ccccc4)OC(=O)[C@H](CC(C)C)N(C)C(=O)[C@@H](C)OC(=O)[C@H](CC(C)C)N(C)C3=O)cc2)c(C)c1Cl [Example 2-50, (3S,6R,9S,12R,15S,18R,21S,24R)-6-benzyl-18-(4-((4-chloro-3,5-dimethyl-1H-pyrazol-1-yl)methyl)benzyl)-3,9,15,21-tetraisobutyl-4,10,12,16,22,24-hexamethyl-1,7,13,19-tetraoxa-4,10,16,22-tetraazacyclotetracosan-2,5,8,11,14,17,20,23-octaone] | 0.01 to 0.1
CC(C)C[C@H]1C(=O)O[C@H](Cc2ccc(Cn3ccc(C4CC4)n3)cc2)C(=O)N(C)[C@@H](CC(C)C)C(=O)O[C@H](C)C(=O)N(C)[C@@H](CC(C)C)C(=O)O[C@H](Cc2ccc(Cn3ccc(C4CC4)n3)cc2)C(=O)N(C)[C@@H](CC(C)C)C(=O)O[C@H](C)C(=O)N1C [Example 1b-67, (3S,6R,9S,12R,15S,18R,21S,24R)-6,18-bis(4-((3-cyclopropyl-1H-pyrazol-1-yl)methyl)benzyl)-3,9,15,21-tetraisobutyl-4,10,12,16,22,24-hexamethyl-1,7,13,19-tetraoxa-4,10,16,22-tetraazacyclotetracosan-2,5,8,11,14,17,20,23-octaone] | 0.01 to 0.1
CC(C)C[C@H]1C(=O)O[C@H](Cc2cccc(Cn3nc(C4CC4)cc3C3CC3)c2)C(=O)N(C)[C@@H](CC(C)C)C(=O)O[C@H](C)C(=O)N(C)[C@@H](CC(C)C)C(=O)O[C@H](Cc2ccccc2)C(=O)N(C)[C@@H](CC(C)C)C(=O)O[C@H](C)C(=O)N1C [Example 5-6, (3S,6R,9S,12R,15S,18R,21S,24R)-6-benzyl-18-(3-((3,5-dicyclopropyl-1H-pyrazol-1-yl)methyl)benzyl)-3,9,15,21-tetraisobutyl-4,10,12,16,22,24-hexamethyl-1,7,13,19-tetraoxa-4,10,16,22-tetraazacyclotetracosan-2,5,8,11,14,17,20,23-octaone] | 0.01 to 0.1
CC(C)C[C@H]1C(=O)O[C@H](Cc2ccc(Cn3cc(CCO)cn3)cc2)C(=O)N(C)[C@@H](CC(C)C)C(=O)O[C@H](C)C(=O)N(C)[C@@H](CC(C)C)C(=O)O[C@H](Cc2ccccc2)C(=O)N(C)[C@@H](CC(C)C)C(=O)O[C@H](C)C(=O)N1C [Example 2-35, (3S,6R,9S,12R,15S,18R,21S,24R)-6-benzyl-18-(4-((4-(2-hydroxyethyl)-1H-pyrazol-1-yl)methyl)benzyl)-3,9,15,21-tetraisobutyl-4,10,12,16,22,24-hexamethyl-1,7,13,19-tetraoxa-4,10,16,22-tetraazacyclotetracosan-2,5,8,11,14,17,20,23-octaone] | 0.01 to 0.1
CC(C)C[C@H]1C(=O)O[C@H](Cc2ccc(Cn3cc(CCO)cn3)cc2)C(=O)N(C)[C@@H](CC(C)C)C(=O)O[C@H](C)C(=O)N(C)[C@@H](CC(C)C)C(=O)O[C@H](Cc2ccc(Cn3cc(CCO)cn3)cc2)C(=O)N(C)[C@@H](CC(C)C)C(=O)O[C@H](C)C(=O)N1C [Example 1b-75, (3S,6R,9S,12R,15S,18R,21S,24R)-6,18-bis(4-((4-(2-hydroxyethyl)-1H-pyrazol-1-yl)methyl)benzyl)-3,9,15,21-tetraisobutyl-4,10,12,16,22,24-hexamethyl-1,7,13,19-tetraoxa-4,10,16,22-tetraazacyclotetracosan-2,5,8,11,14,17,20,23-octaone] | 0.01 to 0.1
CCOc1cc(C2CC2)nn1Cc1ccc(C[C@H]2OC(=O)[C@H](CC(C)C)N(C)C(=O)[C@@H](C)OC(=O)[C@H](CC(C)C)N(C)C(=O)[C@@H](Cc3ccc(Cn4nc(C5CC5)cc4OCC)cc3)OC(=O)[C@H](CC(C)C)N(C)C(=O)[C@@H](C)OC(=O)[C@H](CC(C)C)N(C)C2=O)cc1 [Example 1b-170, (3S,6R,9S,12R,15S,18R,21S,24R)-6,18-bis(4-((3-cyclopropyl-5-ethoxy-1H-pyrazol-1-yl)methyl)benzyl)-3,9,15,21-tetraisobutyl-4,10,12,16,22,24-hexamethyl-1,7,13,19-tetraoxa-4,10,16,22-tetraazacyclotetracosan-2,5,8,11,14,17,20,23-octaone] | 0.01 to 0.1
Cc1nn(Cc2ccc(C[C@H]3OC(=O)[C@H](CC(C)C)N(C)C(=O)[C@@H](C)OC(=O)[C@H](CC(C)C)N(C)C(=O)[C@@H](Cc4ccc(Cn5cc(C#N)c(C)n5)cc4)OC(=O)[C@H](CC(C)C)N(C)C(=O)[C@@H](C)OC(=O)[C@H](CC(C)C)N(C)C3=O)cc2)cc1C#N [Example 1b-135, 1,1′-(((((2R,5S,8R,11S,14R,17S,20R,23S)-5,11,17,23-tetraisobutyl-4,8,10,16,20,22-hexamethyl-3,6,9,12,15,18,21,24-octaoxo-1,7,13,19-tetraoxa-4,10,16,22-tetraazacyclotetracosane-2,14-diyl)bis(methylene))bis(4,1-phenylene))bis(methylene))bis(3-methyl-1H-pyrazole-4-carbonitrile)] | 0.001 to 0.01
Cc1nn(Cc2ccc(C[C@H]3OC(=O)[C@H](CC(C)C)N(C)C(=O)[C@@H](C)OC(=O)[C@H](CC(C)C)N(C)C(=O)[C@@H](Cc4ccc(Cn5nc(C)c(C#N)c5C)cc4)OC(=O)[C@H](CC(C)C)N(C)C(=O)[C@@H](C)OC(=O)[C@H](CC(C)C)N(C)C3=O)cc2)c(C)c1C#N [Example 1b-117, 1,1′-(((((2R,5S,8R,11S,14R,17S,20R,23S)-5,11,17,23-tetraisobutyl-4,8,10,16,20,22-hexamethyl-3,6,9,12,15,18,21,24-octaoxo-1,7,13,19-tetraoxa-4,10,16,22-tetraazacyclotetracosane-2,14-diyl)bis(methylene))bis(4,1-phenylene))bis(methylene))bis(3,5-dimethyl-1H-pyrazole-4-carbonitrile)] | 0.01 to 0.1
CC(C)C[C@H]1C(=O)O[C@H](Cc2ccc(CN3CCOc4cccnc43)cc2)C(=O)N(C)[C@@H](CC(C)C)C(=O)O[C@H](C)C(=O)N(C)[C@@H](CC(C)C)C(=O)O[C@H](Cc2ccc(CN3CCOc4cccnc43)cc2)C(=O)N(C)[C@@H](CC(C)C)C(=O)O[C@H](C)C(=O)N1C [Example 9-64, (3S,6R,9S,12R,15S,18R,21S,24R)-6,18-bis[[4-(2,3-dihydropyrido[3,2-b][1,4]oxazin-4-ylmethyl)phenyl]methyl]-3,9,15,21-tetraisobutyl-4,10,12,16,22,24-hexamethyl-1,7,13,19-tetraoxa-4,10,16,22-tetrazacyclotetracosane-2,5,8,11,14,17,20,23-octaone] | 0.01 to 0.1
